System: patients with type 2 diabetes treated with insulin
Assay: Clinical study: 24 weeks LAF237 50 mg bid vs placebo as add-on to insulin, hypoglycemic episodes
Type: in vivo, human
Conditions: for Number of severe hypoglycemic episodes (Panel C): severe = requiring assistance of another party; for Number of severe hypoglycemic events compared with placebo group: P=0.032, chi-square test of two Poisson rates
Method: A multicenter, double-blind, randomized, parallel-group study to compare the effect of 24 weeks treatment with LAF237 50 mg bid to placebo as add-on therapy in patients with type 2 diabetes treated with insulin.
In addition to treatment with insulin, patients are assigned to double-blind treatment of LAF237 50 mg bid or placebo in a ratio of 1:1.
This is a multicenter, randomized, double-blind, placebo-controlled study. Patients with type 2 diabetes (HbA1c 7.5-11%) who have been treated for at least 3 months with insulin is eligible for participation in the trial. Eligible patients are randomized equally to LAF237 50 mg bid or placebo in addition to continuing their insulin therapy. The insulin dose can be adjusted downward as clinically indicated but upward adjustments should not exceed 25% of the baseline insulin dose.
Each patient attends one screening visit (Week-4) where the inclusion/exclusion criteria is assessed. Eligible patients are then be randomized at Visit 2 (Baseline, Day 1) and complete 5 further visits over a period of 24 weeks of treatment with LAF237 or placebo added to insulin.
Patients were instructed to perform self-monitored blood glucose measurements (SMBG) any time hypoglycemia was suspected and prior to breakfast at least 3 times per week. […] Severe hypoglycemia was defined as any episode requiring the assistance of another party (with low plasma glucose value<3.1 mmol/L unless the severity of the event precluded glucose determination).

[1] = 24-week treatment, vildagliptin 50 mg bid added to insulin (n = 144)

Total number of hypoglycemic episodes reported (Panel B) [1]: 113 episodes
Number of patients reporting any hypoglycemic episode (Panel A) (24-week treatment, vildagliptin 50 mg bid added to insulin (n = 144), hypoglycemia = symptoms confirmed by SMBG<3.1 mmol/L): 33 patients
Number of severe hypoglycemic episodes (Panel C) [1]: none
Number of severe hypoglycemic episodes (Panel C) (24-week treatment, vildagliptin 50 mg bid added to insulin (n = 144), listed as Vildagliptin + Insulin): 0 episodes
Effect against insulin-induced hypoglycemia (added to insulin in type 2 diabetes patients): protective effect
Number of hypoglycemic events compared with placebo group (vildagliptin 50 mg bid vs placebo, both added to insulin, 24 weeks, P<0.001, chi-square test of two Poisson rates): statistically significantly lower
Number of severe hypoglycemic events compared with placebo group (vildagliptin 50 mg bid vs placebo, both added to insulin, 24 weeks): statistically significantly lower
Number of severe hypoglycemic events compared with placebo group (vildagliptin 50 mg bid vs placebo, both added to insulin, 24 weeks, listed as LAF237): fewer severe hypoglycaemic episodes
Structure (SMILES): N#C[C@@H]1CCCN1C(=O)CNC12CC3CC(CC(O)(C3)C1)C2 [vildagliptin, (S)-1-[(3-hydroxy-1-adamantyl)amino]acetyl-2-cyano-pyrrolidine]
Number of severe hypoglycemic episodes (Panel C) (24-week treatment, vildagliptin 50 mg bid added to insulin (n = 144), listed as LAF237): did not show any severe hypoglycaemic episodes

— patent publication US8143217B2, “Use of DPP-IV inhibitor to reduce hypoglycemic events” (Novartis AG, priority 2005, dated 2012)
